This note sets out measurements from BindingDB's records for doi:10.1016/s0028-3908(96)00171-2 (Smithkline Beecham Pharmaceuticals, 1997).

The Ki is the equilibrium dissociation constant of an inhibitor or competing ligand from its target. A lower Ki goes with higher affinity.

SMILES strings stand for the structures.

The target in the assay is 5-hydroxytryptamine receptor 6 (Homo sapiens, UniProt P50406).
5-hydroxytryptamine receptor 6, sequence (P50406 whole entry): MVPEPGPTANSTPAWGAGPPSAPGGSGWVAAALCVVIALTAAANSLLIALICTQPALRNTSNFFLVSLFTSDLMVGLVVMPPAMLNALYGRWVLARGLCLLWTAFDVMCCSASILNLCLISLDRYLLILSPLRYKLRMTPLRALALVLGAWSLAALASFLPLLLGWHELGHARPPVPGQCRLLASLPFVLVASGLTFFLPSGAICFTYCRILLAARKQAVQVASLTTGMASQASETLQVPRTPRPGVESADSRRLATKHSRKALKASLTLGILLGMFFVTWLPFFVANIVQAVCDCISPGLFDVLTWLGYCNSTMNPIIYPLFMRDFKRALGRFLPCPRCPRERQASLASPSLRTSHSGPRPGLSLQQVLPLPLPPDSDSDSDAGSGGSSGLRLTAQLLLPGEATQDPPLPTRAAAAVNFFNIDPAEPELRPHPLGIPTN

Molecule `CC(N)Cc1c[nH]c2ccc(OCc3cccs3)cc12` (stereo unspecified) [NSC_5311036] came in with a Ki of 398 nM.
